# Results taken from US20240269139A1, “COMPOUNDS FOR TARGETED PROTEIN DEGRADATION OF KINASES” (DANA-FARBER CANCER INSTITUTE, INC., priority 2020, published 2024).
# Read-outs that look alike come from different tables or passages of the source.
# What was measured:
# Type in all cases: cell-based
# [1] = target: protein kinases (human kinome) (Homo sapiens, UniProt P30291); conditions: for logFC of WEE1: WEE1 P30291-1
# [2] = target: T1, protein kinases (human kinome) (Homo sapiens, UniProt O14976)
# T1 sequence (O14976 1-1311): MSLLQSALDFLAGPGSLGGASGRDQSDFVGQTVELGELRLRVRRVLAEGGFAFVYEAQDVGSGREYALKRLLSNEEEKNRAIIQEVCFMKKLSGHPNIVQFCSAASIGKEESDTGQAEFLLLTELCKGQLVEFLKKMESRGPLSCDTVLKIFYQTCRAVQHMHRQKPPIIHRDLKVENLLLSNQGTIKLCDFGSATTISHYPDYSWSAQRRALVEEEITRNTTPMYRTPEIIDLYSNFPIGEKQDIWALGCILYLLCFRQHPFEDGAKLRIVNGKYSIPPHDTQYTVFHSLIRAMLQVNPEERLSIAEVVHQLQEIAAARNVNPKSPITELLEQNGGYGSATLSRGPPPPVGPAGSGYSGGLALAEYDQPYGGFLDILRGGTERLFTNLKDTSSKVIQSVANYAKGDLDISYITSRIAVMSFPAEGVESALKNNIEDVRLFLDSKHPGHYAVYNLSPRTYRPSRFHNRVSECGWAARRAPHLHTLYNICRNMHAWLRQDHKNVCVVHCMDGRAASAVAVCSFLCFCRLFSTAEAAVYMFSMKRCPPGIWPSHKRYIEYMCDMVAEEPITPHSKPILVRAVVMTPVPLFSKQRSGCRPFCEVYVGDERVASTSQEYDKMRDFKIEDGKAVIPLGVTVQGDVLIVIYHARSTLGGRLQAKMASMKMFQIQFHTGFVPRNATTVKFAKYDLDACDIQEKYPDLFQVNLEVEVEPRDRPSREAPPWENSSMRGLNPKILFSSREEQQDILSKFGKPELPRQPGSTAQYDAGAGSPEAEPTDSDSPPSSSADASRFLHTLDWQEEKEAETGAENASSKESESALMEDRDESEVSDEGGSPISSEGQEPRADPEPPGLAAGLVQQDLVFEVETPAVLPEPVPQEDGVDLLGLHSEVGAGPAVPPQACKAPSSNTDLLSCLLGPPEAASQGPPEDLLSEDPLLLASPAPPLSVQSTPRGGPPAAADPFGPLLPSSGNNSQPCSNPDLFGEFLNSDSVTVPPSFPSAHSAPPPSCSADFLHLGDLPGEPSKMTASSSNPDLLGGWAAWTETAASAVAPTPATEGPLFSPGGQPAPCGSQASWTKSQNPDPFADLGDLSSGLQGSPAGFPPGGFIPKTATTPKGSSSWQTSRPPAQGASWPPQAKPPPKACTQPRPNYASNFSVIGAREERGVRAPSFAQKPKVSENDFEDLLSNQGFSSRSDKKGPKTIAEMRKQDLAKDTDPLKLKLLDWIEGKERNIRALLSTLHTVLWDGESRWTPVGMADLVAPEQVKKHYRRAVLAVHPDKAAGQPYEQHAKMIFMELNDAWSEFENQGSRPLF
# [3] = target: protein kinases (human kinome) (Homo sapiens, UniProt Q2M2I8)
# protein kinases (human kinome) (Homo sapiens, UniProt Q2M2I8), sequence (Q2M2I8 whole entry): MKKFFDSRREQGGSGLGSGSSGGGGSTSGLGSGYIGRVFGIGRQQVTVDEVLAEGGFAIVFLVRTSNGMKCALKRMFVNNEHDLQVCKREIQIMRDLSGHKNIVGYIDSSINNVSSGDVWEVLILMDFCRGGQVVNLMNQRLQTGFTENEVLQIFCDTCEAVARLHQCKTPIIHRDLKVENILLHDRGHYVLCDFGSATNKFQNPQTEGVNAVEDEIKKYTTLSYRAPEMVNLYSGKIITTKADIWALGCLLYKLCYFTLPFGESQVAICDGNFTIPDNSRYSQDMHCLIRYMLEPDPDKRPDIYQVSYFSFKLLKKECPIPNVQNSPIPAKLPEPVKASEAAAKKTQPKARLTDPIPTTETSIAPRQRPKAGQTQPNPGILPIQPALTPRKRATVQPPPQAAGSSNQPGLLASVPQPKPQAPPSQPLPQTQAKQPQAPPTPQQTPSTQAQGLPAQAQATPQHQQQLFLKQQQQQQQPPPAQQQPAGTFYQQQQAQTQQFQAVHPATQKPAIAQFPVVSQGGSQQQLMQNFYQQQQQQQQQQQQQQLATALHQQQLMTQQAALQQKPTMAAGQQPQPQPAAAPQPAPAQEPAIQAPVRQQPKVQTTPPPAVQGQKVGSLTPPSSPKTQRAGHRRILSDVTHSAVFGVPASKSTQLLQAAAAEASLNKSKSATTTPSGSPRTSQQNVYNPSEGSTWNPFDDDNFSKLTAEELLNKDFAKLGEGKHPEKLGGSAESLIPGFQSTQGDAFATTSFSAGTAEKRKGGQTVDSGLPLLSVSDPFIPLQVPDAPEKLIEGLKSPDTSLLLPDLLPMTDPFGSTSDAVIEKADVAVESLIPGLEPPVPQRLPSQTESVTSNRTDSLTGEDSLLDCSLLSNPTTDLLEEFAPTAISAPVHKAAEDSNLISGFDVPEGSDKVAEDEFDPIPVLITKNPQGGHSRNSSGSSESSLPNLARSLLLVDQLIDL
# [4] = target: protein kinases (human kinome) (Homo sapiens, UniProt P51451); conditions: for logFC of BLK: BLK P51451; for logFC of BLK (P51451): down; for logFC BLK: BLK (P51451), direction down
# protein kinases (human kinome) (Homo sapiens, UniProt P51451), sequence (P51451 whole entry): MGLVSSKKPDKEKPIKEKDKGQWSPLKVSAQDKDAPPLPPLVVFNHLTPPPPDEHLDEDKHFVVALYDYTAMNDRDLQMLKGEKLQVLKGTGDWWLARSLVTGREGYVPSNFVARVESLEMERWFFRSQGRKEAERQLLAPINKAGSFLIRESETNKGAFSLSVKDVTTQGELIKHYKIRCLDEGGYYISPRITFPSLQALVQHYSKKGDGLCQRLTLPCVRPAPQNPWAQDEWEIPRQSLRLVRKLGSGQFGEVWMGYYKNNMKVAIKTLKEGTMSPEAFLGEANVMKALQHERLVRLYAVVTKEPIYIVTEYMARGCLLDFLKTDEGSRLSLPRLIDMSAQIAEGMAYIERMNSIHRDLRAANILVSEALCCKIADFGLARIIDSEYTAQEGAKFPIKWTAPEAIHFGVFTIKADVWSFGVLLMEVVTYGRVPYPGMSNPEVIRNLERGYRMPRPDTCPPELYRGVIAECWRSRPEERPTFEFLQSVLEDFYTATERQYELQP
# [5] = target: protein kinases (human kinome) (Homo sapiens, UniProt P16591); conditions: for logFC of FER (P16591-1): down; for logFC of FER: FER P16591-1
# protein kinases (human kinome) (Homo sapiens, UniProt P16591), sequence (P16591 whole entry): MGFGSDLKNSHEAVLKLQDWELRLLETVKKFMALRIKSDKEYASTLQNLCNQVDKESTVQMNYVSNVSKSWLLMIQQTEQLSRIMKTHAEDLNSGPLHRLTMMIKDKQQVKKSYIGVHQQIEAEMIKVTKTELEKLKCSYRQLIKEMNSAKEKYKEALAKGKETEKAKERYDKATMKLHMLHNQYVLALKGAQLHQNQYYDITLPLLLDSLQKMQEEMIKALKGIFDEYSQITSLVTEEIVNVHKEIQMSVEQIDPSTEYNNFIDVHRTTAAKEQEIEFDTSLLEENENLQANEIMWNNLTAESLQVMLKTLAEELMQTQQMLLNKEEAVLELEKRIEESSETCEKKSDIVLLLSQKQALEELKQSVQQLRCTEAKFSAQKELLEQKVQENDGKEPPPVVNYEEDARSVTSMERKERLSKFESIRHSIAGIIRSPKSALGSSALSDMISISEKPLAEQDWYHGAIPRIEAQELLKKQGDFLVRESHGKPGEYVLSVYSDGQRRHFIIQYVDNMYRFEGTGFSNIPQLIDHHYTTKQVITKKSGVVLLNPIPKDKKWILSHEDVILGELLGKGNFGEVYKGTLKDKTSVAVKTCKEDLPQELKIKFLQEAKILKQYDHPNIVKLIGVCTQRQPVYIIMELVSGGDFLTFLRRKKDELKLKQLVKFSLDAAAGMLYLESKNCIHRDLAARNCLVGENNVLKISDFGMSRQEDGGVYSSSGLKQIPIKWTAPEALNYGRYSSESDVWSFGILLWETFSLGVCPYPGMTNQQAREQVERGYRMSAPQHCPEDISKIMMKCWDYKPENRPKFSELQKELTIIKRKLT
# [6] = GAK (O14976), direction down, experiment wp071
# [7] = GAK (O14976), direction down, experiment wp081
# [8] = AAK1 (Q2M218-1), experiment wp146, down
# [9] = AAK1, accession Q2M218-1, experiment wp146, direction of change down
# protein kinases (human kinome) (Homo sapiens, UniProt P30291), sequence (P30291 whole entry): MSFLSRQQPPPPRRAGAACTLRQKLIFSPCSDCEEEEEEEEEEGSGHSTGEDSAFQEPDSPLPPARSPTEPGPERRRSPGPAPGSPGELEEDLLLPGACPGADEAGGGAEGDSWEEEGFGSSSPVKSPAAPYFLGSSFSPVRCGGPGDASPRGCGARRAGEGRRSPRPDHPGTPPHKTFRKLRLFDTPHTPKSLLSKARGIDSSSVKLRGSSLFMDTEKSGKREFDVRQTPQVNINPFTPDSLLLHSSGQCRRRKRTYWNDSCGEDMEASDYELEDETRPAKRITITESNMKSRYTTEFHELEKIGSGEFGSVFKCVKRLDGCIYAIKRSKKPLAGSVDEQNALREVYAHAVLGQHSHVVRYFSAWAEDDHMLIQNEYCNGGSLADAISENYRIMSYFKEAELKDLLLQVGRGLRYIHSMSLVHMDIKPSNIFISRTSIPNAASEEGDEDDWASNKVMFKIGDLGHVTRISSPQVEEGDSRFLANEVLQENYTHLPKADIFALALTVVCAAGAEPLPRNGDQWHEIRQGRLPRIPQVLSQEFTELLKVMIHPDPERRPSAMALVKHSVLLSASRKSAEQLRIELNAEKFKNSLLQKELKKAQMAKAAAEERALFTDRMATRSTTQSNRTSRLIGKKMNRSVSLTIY
smiles,measurement,setting,value
O=C(COc1cccc2c1C(=O)N(C1CCC(=O)NC1=O)C2=O)NCCCCCCCN1CCc2cc(Nc3ncc(C4CC4)c(NCCCNC(=O)C4CCC4)n3)ccc2C1 (stereo not drawn) [BSJ.04.178],logFC of WEE1,[1]; experiment wp134,−0.5688
same,logFC WEE1 (P30291-1),[1]; experiment wp134,−0.5688
same,logFC of GAK (O14976),"[2]; Experiment wp134, down",−2.402
same,logFC GAK,"[2]; GAK (O14976), direction down, experiment wp134",−2.402
same,logFC AAK1,"[3]; AAK1 (Q2M218-1), experiment wp134, down",−3.342
same,logFC AAK1,"[3]; AAK1, accession Q2M218-1, experiment wp134, direction of change down",−3.342
Cc1cnc(Nc2ccc(N3CCN(CCOCCOCCNC(=O)COc4cccc5c4C(=O)N(C4CCC(=O)NC4=O)C5=O)CC3)cc2)nc1Nc1cccc(S(=O)(=O)NC(C)(C)C)c1 (stereo not drawn) [JWG.118],logFC of GAK (O14976),"[2]; Experiment wp071, down",−1.972
same,logFC GAK,[2]; [6],−1.972
same,logFC AAK1,"[3]; AAK1 (Q2M218-1), experiment wp071, down",−3.044
same,logFC AAK1,"[3]; AAK1, accession Q2M218-1, experiment wp071, direction of change down",−3.044
CNC(=O)c1ccccc1Nc1cc(Nc2ccc(N3CCN(CCOCCOCCNC(=O)CNc4cccc5c4C(=O)N(C4CCC(=O)NC4=O)C5=O)CC3)cc2OC)ncc1C(F)(F)F (stereo not drawn) [MFH.5.103.1],logFC WEE1 (P30291-1),[1]; experiment wp076,−0.9694
Nc1ncnc2c1c(-c1ccc(Oc3ccccc3)cc1)nn2[C@H]1CC[C@H](N2CCN(CCOCCNC(=O)CNc3cccc4c3C(=O)N(C3CCC(=O)NC3=O)C4=O)CC2)CC1 (stereo partly drawn) [SB1.G.181],logFC of BLK,[4]; experiment wp071,−2.337
same,logFC of BLK (P51451),[4]; Experiment wp071,−2.337
Cc1ccc(C(=O)Nc2ccc(CN3CCN(CCCOCCOCCOCCNC(=O)COc4cccc5c4C(=O)N(C4CCC(=O)NC4=O)C5=O)CC3)c(C(F)(F)F)c2)cc1C#Cc1cnc2cccnn12 (stereo not drawn) [SB1.G.187],logFC of FER (P16591-1),[5]; Experiment wp056,−1.267
same,logFC of FER (P16591-1),[5]; Experiment wp103,−1.672
same,logFC of FER (P16591-1),[5]; Experiment wp105,−1.432
same,logFC of FER (P16591-1),[5]; Experiment wp107,−1.76
same,logFC of FER,[5]; experiment wp056,−1.267
same,logFC of FER,[5]; experiment wp103,−1.672
same,logFC of FER,[5]; experiment wp105,−1.432
same,logFC of FER,[5]; experiment wp107,−1.76
same,logFC BLK,[4]; experiment wp103,−2.098
same,logFC BLK,[4]; experiment wp107,−1.916
same,logFC of BLK,[4]; experiment wp056,−2.021
same,logFC of BLK (P51451),[4]; Experiment wp056,−2.021
same,logFC of BLK (P51451),[4]; Experiment wp103,−2.098
same,logFC of BLK (P51451),[4]; Experiment wp107,−1.916
same,logFC of GAK (O14976),"[2]; Experiment wp056, down",−1.543
same,logFC of GAK (O14976),"[2]; Experiment wp103, down",−1.478
same,logFC of GAK (O14976),"[2]; Experiment wp105, down",−1.088
same,logFC of GAK (O14976),"[2]; Experiment wp107, down",−1.768
same,logFC of GAK (O14976),"[2]; Experiment wp114, down",−0.3578
same,logFC GAK,"[2]; GAK (O14976), direction down, experiment wp056",−1.543
same,logFC GAK,"[2]; GAK (O14976), direction down, experiment wp103",−1.478
same,logFC GAK,"[2]; GAK (O14976), direction down, experiment wp105",−1.088
same,logFC GAK,"[2]; GAK (O14976), direction down, experiment wp107",−1.768
same,logFC GAK,"[2]; GAK (O14976), direction down, experiment wp114",−0.3578
same,logFC GAK,"[2]; GAK (O14976), experiment wp172, down",−1.007
same,logFC GAK,"[2]; GAK, accession O14976, experiment wp172, direction of change down",−1.007
Cn1c(=O)c(-c2c(Cl)cccc2Cl)cc2cnc(Nc3ccc(OCCNC(=O)CCCCCCNC(=O)COc4cccc5c4C(=O)N(C4CCC(=O)NC4=O)C5=O)cc3)nc21 (stereo not drawn) [SB1.G.192.1],logFC of WEE1,[1]; experiment wp081,−1.764
same,logFC of WEE1,[1]; experiment wp131,−1.647
same,logFC WEE1 (P30291-1),[1]; experiment wp071,−2.367
same,logFC WEE1 (P30291-1),[1]; experiment wp081,−1.764
same,logFC WEE1 (P30291-1),[1]; experiment wp131,−1.647
same,logFC BLK,[4]; experiment wp071,−2.399
same,logFC BLK,[4]; experiment wp081,−2.013
same,logFC BLK,[4]; experiment wp131,−2.465
same,logFC of BLK (P51451),[4]; Experiment wp071,−2.399
same,logFC of BLK (P51451),[4]; Experiment wp081,−2.013
same,logFC of BLK (P51451),[4]; Experiment wp131,−2.465
same,logFC of GAK (O14976),"[2]; Experiment wp071, down",−1.765
same,logFC of GAK (O14976),"[2]; Experiment wp081, down",−1.409
same,logFC of GAK (O14976),"[2]; Experiment wp131, down",−1.475
same,logFC GAK,[2]; [6],−1.765
same,logFC GAK,[2]; [7],−1.409
same,logFC GAK,"[2]; GAK (O14976), direction down, experiment wp131",−1.475
Cc1ccc(C(=O)Nc2ccc(CN3CCN(CCOCCOCCNC(=O)CNc4cccc5c4C(=O)N(C4CCC(=O)NC4=O)C5=O)CC3)c(C(F)(F)F)c2)cc1C#Cc1cnc2cccnn12 (stereo not drawn) [TL13.150],logFC of FER (P16591-1),[5]; Experiment wp081,−1.511
same,logFC of FER,[5]; experiment wp081,−1.511
same,logFC BLK,[4]; experiment wp081,−1.435
same,logFC of BLK (P51451),[4]; Experiment wp081,−1.435
same,logFC of GAK (O14976),"[2]; Experiment wp081, down",−1.014
same,logFC GAK,[2]; [7],−1.014
NC(=O)c1c(F)cccc1Nc1nc(Nc2ccc(S(=O)(=O)NCCOCCOCCOCCOCCNc3cccc4c3C(=O)N(C3CCC(=O)NC3=O)C4=O)cc2)ncc1Br (stereo not drawn) [TMX.02.138],logFC of FER (P16591-1),[5]; Experiment wp146,−0.8083
same,logFC of FER,[5]; experiment wp146,−0.8083
same,logFC AAK1,[3]; [8],−1.129
same,logFC AAK1,[3]; [9],−1.129
Cc1cc(Nc2ncc(Br)c(Nc3cccc(F)c3C(N)=O)n2)ccc1S(=O)(=O)NCCOCCOCCOCCOCCNc1cccc2c1C(=O)N(C1CCC(=O)NC1=O)C2=O (stereo not drawn) [TMX.02.174],logFC of FER (P16591-1),[5]; Experiment wp146,−1.089
same,logFC of FER,[5]; experiment wp146,−1.089
same,logFC of WEE1,[1]; experiment wp146,−1.142
same,logFC WEE1 (P30291-1),[1]; experiment wp146,−1.142
same,logFC AAK1,[3]; [8],−1.62
same,logFC AAK1,[3]; [9],−1.62
C=CCn1c(=O)c2cnc(Nc3ccc(N4CCN(CCCNc5cccc6c5C(=O)N(C5CCC(=O)NC5=O)C6=O)CC4)cc3)nc2n1-c1cccc(C(C)(C)O)n1 (stereo not drawn) [ZNL.02.096],logFC of WEE1,[1]; experiment wp081,−1.97
same,logFC of WEE1,"[1]; experiment wp106, 2 hr",−2.525
same,logFC of WEE1,"[1]; experiment wp106, 4 hr",−2.764
same,logFC of WEE1,[1]; experiment wp118,−2.75
same,logFC WEE1 (P30291-1),[1]; experiment wp056,−2.409
same,logFC WEE1 (P30291-1),[1]; experiment wp081,−1.97
same,logFC WEE1 (P30291-1),"[1]; experiment wp106, 2 hr",−2.525
same,logFC WEE1 (P30291-1),"[1]; experiment wp106, 4 hr",−2.764
same,logFC WEE1 (P30291-1),[1]; experiment wp118,−2.75
